Data from publication PMC9574862, “Designing Soluble PROTACs: Strategies and Preliminary Guidelines” (Journal of Medicinal Chemistry, 2022).
Converted amounts (≈) assume the structure as drawn.

Tests used:
[1] = Thermodynamic solubility, shake-flask, 10 mM PBS (0.15 M KCl) pH 7, 25 °C, 1 h, HPLC-UV; settings: for solubility at 1 h / Classification (GSK guidelines) / Solubility (in words): pH 7, 25 °C; for Classification (GSK guidelines): solubility class
Protocol: Its measurement only requires an initial DMSO stock solution which is precipitated by the addition of an aqueous phase.[23],[24] Here, we measured thermodynamic solubility, often determined in late lead optimization, which efficiently considers the solubility value when the equilibrium with the stable phase or polymorph has been reached.
Solubility was determined in 10 mM PBS (0.15 M KCl) at pH 7, 25 °C. A 1–2 mg sample of each molecule was added to the same quantity (1–2 mL) of the mentioned buffer to obtain 1 mg/mL solutions in the vial. Samples were then submitted to 25 °C and magnetic stirring (500 rpm) for 1 h. After this period, solutions or suspensions were filtered through the 0.45 μm membrane pore and diluted with buffer, 10 mM PBS (0.15 M KCl). The amount of dissolved compound in each sample was then quantified, in duplicate, via HPLC using ultraviolet (UV) spectrometric detection.
Variable volumes of pure DMSO (0–100 μL) were added separately to small and defined (1 mg) quantities of each compound to obtain clear solutions. […] Afterward, 5% DMSO 10 mM PBS (0.15 M KCl) was added until the suspensions or precipitations were redissolved, to render clear solutions. As soon as solutions were obtained, they were used as mother solutions for the performance of 5–10 point calibration curves with serial buffer dilutions (1:1; v/v) 5% DMSO 10 mM PBS (0.15 M KCl). Calibration points were then measured via HPLC-UV.
The mobile phase consisted of a solution of acetonitrile (ACN) and 20 mM ammonium acetate buffer (AAB), pH 7, freshly prepared. A 10 μL volume of each sample (volume of injection) was injected at an isocratic 1 mL/min flow rate analyzed at 30 °C (oven temperature). Solubility determination of each compound required a specific HPLC method. Settings are collected in Table S11 (PROTACs) and Table S10 (building blocks).
Injections were performed in duplicate for each molecule’s calibration points. The retention time and area under the curve (AUC in absorbance units) were collected, and the average was calculated. The AUC average (y-axis) was plotted versus theoretical concentration (mg/mL; x-axis) to obtain a calibration curve for each molecule. Correlation equations and coefficients (R^2) were efficiently calculated for each compound (Table S12 for PROTACs and Table S10 for building blocks). Samples were then injected in duplicate, and the AUC averages and standard deviations were calculated. Finally, the absorbance averages were interpolated into the corresponding equations, extracting the final solubility values with their standard deviation, after dilution factor corrections.

[2] = log kw^IAM – clog kw^IAM
Protocol: Since polarity is a molecular property often related to solubility,[13] experimental descriptors of polarity (Δ log kw^IAM and EPSA) were also determined. Introduced by Grumetto in 2012,[30] Δ log kw^IAM is the difference between the experimental log kw^IAM and the value expected for neutral analytes with a zero value of polar surface area (which depends on the experimental measurement of the n-octanol partition coefficient[31]). EPSA quantifies the polarity of a molecule using a supercritical fluid chromatographic (SFC) method.[32]

[3] = 25 °C, pH 7, aqueous buffer, thermodynamic from solid, Solubility average, thermodynamic, shake-flask, 1 h
[4] = 25 °C, pH 7, aqueous buffer, thermodynamic from solid, Solubility log S, Table S-3
[5] = 25 °C, pH 7, aqueous buffer, thermodynamic from solid, Solubility, Table S-3
[6] = pH 7, Exp.LogS, PROTAC pairs and building blocks
[7] = 25 °C, pH 7, aqueous buffer, thermodynamic from solid, Exp.LogS, PROTAC pairs and building blocks
[8] = pH 7, aqueous buffer, thermodynamic from solid

Row | SMILES | solubility at 1 h [1, 3] [µM] | solubility at 1 h [1, 4] [µM] | solubility at 1 h [1, 5] [µg/mL] | Classification (GSK guidelines) [1] | ΔLog kw IAM [2] | solubility at 1 h [1, 6] [µM] | solubility at 1 h [1, 7] [µM] | Solubility (in words) [1] | solubility thermodynamic at 1 h [1, 8] [µg/mL]
1 | CC(=O)c1c(C)c2cnc(Nc3ccc(N4CCN(CCOCCOCCOCCNC(=O)COc5cccc6c5C(=O)N(C5CCC(=O)NC5=O)C6=O)CC4)cn3)nc2n(C2CCCC2)c1=O (stereo not drawn) [BSJ-03-123] | 17.8 | 17.8 | 20 | Low (< 30 μM) (Low (< 30 μM)) |  |  |  |  | 
2 | Cc1ncsc1-c1ccc(CNC(=O)[C@@H]2C[C@@H](O)CN2C(=O)[C@@H](NC(=O)COCCOCCOCCOCCOCCOCC(=O)N[C@H](C(=O)N2C[C@H](O)C[C@H]2C(=O)NCc2ccc(-c3scnc3C)cc2)C(C)(C)C)C(C)(C)C)cc1 [CM11] | 631 | 631 | 730 | High (> 200 μM) (High (> 200 μM)) | high |  |  |  | 
3 | COC(=O)C[C@@H]1N=C(c2ccc(Cl)cc2)c2c(sc(C(=O)NCCCCCNc3cccc4c3C(=O)N(C3CCC(=O)NC3=O)C4=O)c2C)-n2c(C)nnc21 (stereo partly drawn) [ZXH-3-26] | 2.95 |  |  | Low (< 30 μM) (Low (< 30 μM)) |  | 2.95 |  |  | 
4 | COc1cc(-c2cn(C)c(=O)c3cnccc23)cc(OC)c1CN1CCN(CCCCCOc2cc(-c3scnc3C)ccc2CNC(=O)[C@@H]2C[C@@H](O)CN2C(=O)[C@@H](NC(=O)C2(F)CC2)C(C)(C)C)CC1 [VZ185] | 50.1 | 50.1 | 50 | Intermediate (30–200 μM) (Intermediate (30–200 μM)) |  |  |  |  | 
5 | COc1cc(C(=O)NCCOCCOCCOCCC(=O)Nc2cccc3c2C(=O)N(C2CCC(=O)NC2=O)C3=O)ccc1Nc1ncc(C(F)(F)F)c(Oc2cccc3c2C(=O)CC3)n1 (stereo not drawn) [BI-3663] | 6.92 |  | 10 | Low (< 30 μM) (Low (< 30 μM)) |  |  | 6.92 |  | 
6 | Cc1ncsc1-c1ccc(CNC(=O)[C@@H]2C[C@H](O)CN2C(=O)[C@@H](NC(=O)C2(F)CC2)C(C)(C)C)c(OCCOc2ccc(CN3CCN(c4cc(-c5ccccc5O)nnc4N)CC3)cc2)c1 [CisACBI1] | < 0.87 | < 0.871 |  | Low (< 30 μM) (Low (< 30 μM)) |  |  |  | below the quantification limit | < 0.817
7 | Cc1ncsc1-c1ccc(CNC(=O)[C@@H]2C[C@H](O)CN2C(=O)[C@@H](NC(=O)COCCOCCOCCOCCOCCOCC(=O)N[C@H](C(=O)N2C[C@@H](O)C[C@H]2C(=O)NCc2ccc(-c3scnc3C)cc2)C(C)(C)C)C(C)(C)C)cc1 [CMP98] | 331 | 331 | 390 | High (> 200 μM) (High (> 200 μM)) | high |  |  |  | 
8 | Cc1ncsc1-c1ccc(CNC(=O)[C@@H]2C[C@@H](O)CN2C(=O)[C@@H](NC(=O)COCCOCCOCCNC(=O)C[C@@H]2N=C(c3ccc(Cl)cc3)c3c(sc(C)c3C)-n3c(C)nnc32)C(C)(C)C)cc1 [MZ1] | 38 |  | 40 | Intermediate (30–200 μM) (Intermediate (30–200 μM)) |  |  | 38 |  | 
9 | COc1cc(C(=O)NCCOCCOCCOCC(=O)N[C@H](C(=O)N2C[C@H](O)C[C@H]2C(=O)NCc2ccc(-c3scnc3C)cc2)C(C)(C)C)ccc1Nc1ncc(C(F)(F)F)c(Oc2cccc3c2C(=O)CC3)n1 [BI-0319] | 2.63 |  |  | Low (< 30 μM) (Low (< 30 μM)) |  |  | 2.63 |  | 2.78 (≈ 2.62 µM)
10 | CC(C)(C)c1cnc(CSc2cnc(NC(=O)C3CCN(CC(=O)NCCOCCOCCOCCNc4cccc5c4C(=O)N(C4CCC(=O)NC4=O)C5=O)CC3)s2)o1 (stereo not drawn) [THAL-SNS-032] | 52.5 | 52.5 | 50 | Intermediate (30–200 μM) (Intermediate (30–200 μM)) |  |  |  |  | 
11 | O=C(CCCCC(=O)NCCN1C(=O)c2cccc3c(Sc4ccc(Br)cc4)ccc(c23)C1=O)NCCCCCCNc1cccc2c1C(=O)N(C1CCC(=O)NC1=O)C2=O (stereo not drawn) [Mcl1 degrader-1] | < 0.87 | < 0.871 |  | Low (< 30 μM) (Low (< 30 μM)) |  |  |  | below the quantification limit | < 0.793
12 | CC(=O)N1c2ccc(-c3ccc(C(=O)NCCOCCOCCOCC(=O)N[C@H](C(=O)N4C[C@H](O)C[C@H]4C(=O)NCc4ccc(-c5scnc5C)cc4)C(C)(C)C)cc3)cc2[C@H](Nc2ccc(Cl)cc2)C[C@@H]1C [MZP-54] | 0.51 |  |  | Low (< 30 μM) (Low (< 30 μM)) |  |  | 0.513 |  | 0.528 (≈ 0.509 µM)
13 | Cc1ncsc1-c1ccc(CNC(=O)[C@@H]2C[C@@H](O)CN2C(=O)[C@@H](NC(=O)CCCCOCCCCCOCCCCCCNc2cccc3c2C(=O)N(C2CCC(=O)NC2=O)C3=O)C(C)(C)C)cc1 (stereo partly drawn) [CRBN-6-5-5-VHL] | 1.23 | 1.23 |  | Low (< 30 μM) (Low (< 30 μM)) |  |  |  |  | 1.19 (≈ 1.22 µM)
14 | Cc1sc2c(c1C)C(c1ccc(Cl)cc1)=N[C@@H](CC(=O)Nc1ccc(OCCOCCOCCOCCNc3cccc4c3C(=O)N(C3CCC(=O)NC3=O)C4=O)cc1)c1nnc(C)n1-2 (stereo partly drawn) [ARV-825] | < 0.32 |  |  | Low (< 30 μM) (Low (< 30 μM)) |  |  |  | below the quantification limit | < 0.29
15 | Cc1ncsc1-c1ccc(CNC(=O)[C@@H]2C[C@@H](O)CN2C(=O)[C@@H](NC(=O)C2(F)CC2)C(C)(C)C)c(OCCOc2ccc(CN3CCN(c4cc(-c5ccccc5O)nnc4N)CC3)cc2)c1 [ACBI1] | < 0.72 |  |  | Low (< 30 μM) (Low (< 30 μM)) |  |  |  | below the quantification limit | < 0.68
16 | COc1cc2ncnc(Nc3ccc(F)c(Cl)c3)c2cc1OCCCCCOCCOCCC(=O)N[C@H](C(=O)N1C[C@H](O)C[C@H]1C(=O)NCc1ccc(-c2scnc2C)cc1)C(C)(C)C [Gefitinib-based PROTAC 3] | 1.23 | 1.23 |  | Low (< 30 μM) (Low (< 30 μM)) |  |  |  |  | 1.14 (≈ 1.22 µM)
17 | Cc1ncsc1-c1ccc(CNC(=O)[C@@H]2C[C@H](O)CN2C(=O)[C@@H](NC(=O)COCCOCCOCCNC(=O)C[C@@H]2N=C(c3ccc(Cl)cc3)c3c(sc(C)c3C)-n3c(C)nnc32)C(C)(C)C)cc1 [CisMZ1] | 50.1 | 50.1 | 50 | Intermediate (30–200 μM) (Intermediate (30–200 μM)) |  |  |  |  | 
18 | Cc1sc2c(c1C)C(c1ccc(Cl)cc1)=N[C@@H](CC(=O)NCCNc1cccc3c1C(=O)N(C1CCC(=O)NC1=O)C3=O)c1nnc(C)n1-2 (stereo partly drawn) [dBET57] | 30.2 |  | 20 | Intermediate (30–200 μM) (Intermediate (30–200 μM)) |  | 30.2 |  |  | 
19 | COc1cc(C(=O)NCCOCCOCCOCC(=O)N[C@H](C(=O)N2C[C@@H](O)C[C@H]2C(=O)NCc2ccc(-c3scnc3C)cc2)C(C)(C)C)ccc1Nc1ncc(C(F)(F)F)c(Oc2cccc3c2C(=O)CC3)n1 [BI-4206] | 0.58 |  |  | Low (< 30 μM) (Low (< 30 μM)) |  |  | 0.575 |  | 0.606 (≈ 0.571 µM)
20 | O=C1CCC(N2Cc3c(C#CCCCNC(=O)c4ccc(NC(=O)[C@@H]5NC6(CCCCC6)[C@@]6(C(=O)Nc7cc(Cl)ccc76)[C@H]5c5cccc(Cl)c5F)cc4)cccc3C2=O)C(=O)N1 (stereo partly drawn) [MD-224] | < 0.23 | < 0.229 |  | Low (< 30 μM) (Low (< 30 μM)) |  |  |  | below the quantification limit | < 0.289
